The source made the active and inactive calls. No cut-off for these calls is given here.
Legend:
[1] = target: T1, Protein cereblon/Cyclin-dependent kinase 12 (Homo sapiens) (UniProt Q9NYV4+Q96SW2); assay: PROTAC activity at CRBN/CDK12 in human MDA-MB-231 cells assessed as induction of CDK12 degradation incubated for 15 hrs by immunoblotting analysis; format: cell-based
[2] = target: T2, Protein cereblon/Cyclin-dependent kinase 13 (Homo sapiens) (UniProt Q14004+Q96SW2); assay: PROTAC activity at CRBN/CDK13 in human MDA-MB-231 cells assessed as induction of CDK13 degradation at 1 uM by immunoblotting analysis; format: cell-based; conditions: time <= 24.0 hrs, TDE = time-dependent effect
T2 sequence (Q14004 whole entry, looked up): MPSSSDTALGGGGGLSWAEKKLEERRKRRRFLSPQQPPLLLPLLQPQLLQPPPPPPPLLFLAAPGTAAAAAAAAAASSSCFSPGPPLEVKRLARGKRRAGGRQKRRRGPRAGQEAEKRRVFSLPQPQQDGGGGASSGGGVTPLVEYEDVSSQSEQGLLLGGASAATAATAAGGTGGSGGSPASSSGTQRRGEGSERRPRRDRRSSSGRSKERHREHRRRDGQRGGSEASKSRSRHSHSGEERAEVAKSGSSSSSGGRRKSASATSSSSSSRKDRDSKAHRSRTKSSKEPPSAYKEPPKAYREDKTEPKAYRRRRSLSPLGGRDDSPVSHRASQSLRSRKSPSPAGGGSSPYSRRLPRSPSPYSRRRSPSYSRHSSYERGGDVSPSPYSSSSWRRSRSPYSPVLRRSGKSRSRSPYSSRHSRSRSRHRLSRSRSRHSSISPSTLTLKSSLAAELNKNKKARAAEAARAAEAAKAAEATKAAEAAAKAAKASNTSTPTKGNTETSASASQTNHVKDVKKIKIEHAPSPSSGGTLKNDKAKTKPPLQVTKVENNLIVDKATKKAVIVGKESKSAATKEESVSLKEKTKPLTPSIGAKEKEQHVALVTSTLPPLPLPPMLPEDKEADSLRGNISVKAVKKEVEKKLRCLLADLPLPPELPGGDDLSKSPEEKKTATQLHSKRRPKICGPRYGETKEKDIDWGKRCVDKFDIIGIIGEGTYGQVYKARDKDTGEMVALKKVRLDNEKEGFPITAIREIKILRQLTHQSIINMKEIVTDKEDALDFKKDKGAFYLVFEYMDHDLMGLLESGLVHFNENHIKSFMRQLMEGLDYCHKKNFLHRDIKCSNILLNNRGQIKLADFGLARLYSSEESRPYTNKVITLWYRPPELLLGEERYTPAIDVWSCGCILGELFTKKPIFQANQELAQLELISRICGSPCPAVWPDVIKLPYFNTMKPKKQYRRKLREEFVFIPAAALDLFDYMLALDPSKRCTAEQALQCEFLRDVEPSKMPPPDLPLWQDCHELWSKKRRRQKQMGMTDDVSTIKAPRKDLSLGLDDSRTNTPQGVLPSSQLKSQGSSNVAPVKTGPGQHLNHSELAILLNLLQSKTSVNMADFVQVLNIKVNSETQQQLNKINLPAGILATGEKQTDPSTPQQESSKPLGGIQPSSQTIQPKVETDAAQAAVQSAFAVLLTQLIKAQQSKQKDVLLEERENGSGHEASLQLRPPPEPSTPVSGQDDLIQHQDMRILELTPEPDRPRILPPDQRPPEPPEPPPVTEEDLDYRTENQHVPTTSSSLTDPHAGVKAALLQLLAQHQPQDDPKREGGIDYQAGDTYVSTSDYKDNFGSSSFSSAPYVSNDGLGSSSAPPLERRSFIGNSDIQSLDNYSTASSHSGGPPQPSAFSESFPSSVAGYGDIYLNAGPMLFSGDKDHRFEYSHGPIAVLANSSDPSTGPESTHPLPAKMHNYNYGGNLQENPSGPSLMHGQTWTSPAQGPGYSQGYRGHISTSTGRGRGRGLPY
T2 sequence (Q96SW2 whole entry, looked up): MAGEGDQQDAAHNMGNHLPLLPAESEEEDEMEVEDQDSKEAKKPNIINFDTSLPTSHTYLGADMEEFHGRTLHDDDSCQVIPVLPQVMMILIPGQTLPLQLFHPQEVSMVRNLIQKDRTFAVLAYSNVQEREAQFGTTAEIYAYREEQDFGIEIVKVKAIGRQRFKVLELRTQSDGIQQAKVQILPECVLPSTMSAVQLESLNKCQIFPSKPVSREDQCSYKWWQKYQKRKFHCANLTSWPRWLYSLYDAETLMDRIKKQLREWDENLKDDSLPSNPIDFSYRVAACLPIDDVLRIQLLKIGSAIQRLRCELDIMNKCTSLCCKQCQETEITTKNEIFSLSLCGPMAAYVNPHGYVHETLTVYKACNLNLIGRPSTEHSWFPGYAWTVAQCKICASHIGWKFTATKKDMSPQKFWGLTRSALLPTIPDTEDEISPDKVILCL

[3] = target: T2, Protein cereblon/Cyclin-dependent kinase 13 (Homo sapiens); assay: PROTAC activity at CRBN/CDK13 in human MDA-MB-436 cells assessed as induction of CDK13 degradation incubated for 15 hrs by immunoblotting analysis; format: cell-based; conditions: dose 0.01-3 µM
[4] = target: T2, Protein cereblon/Cyclin-dependent kinase 13 (Homo sapiens); assay: PROTAC activity at CRBN/CDK13 in human MDA-MB-231 cells assessed as induction of CDK13 degradation at 1 uM pretreated with MG132 followed by compound addition and measured after 10 hrs by immunoblotting analysis; format: cell-based
[5] = target: T2, Protein cereblon/Cyclin-dependent kinase 13 (Homo sapiens); assay: PROTAC activity at CRBN/CDK13 in human MDA-MB-231 cells assessed as induction of CDK13 degradation at 1 uM pretreated with MLN4924 followed by compound addition and measured after 10 hrs by immunoblotting analysis; format: cell-based
[6] = target: T1, Protein cereblon/Cyclin-dependent kinase 12 (Homo sapiens); assay: PROTAC activity at CRBN/CDK12 in human MDA-MB-231 cells assessed as induction of CDK12 degradation at 1 uM pretreated with bafilomycin followed by compound addition and measured after 10 hrs by immunoblotting analysis; format: cell-based
[7] = target: T1, Protein cereblon/Cyclin-dependent kinase 12 (Homo sapiens); assay: PROTAC activity at CRBN/CDK12 in human MDA-MB-231 cells assessed as induction of CDK12 degradation at 1 uM pretreated with pomalidomide followed by compound addition and measured after 10 hrs by immunoblotting analysis; format: cell-based
[8] = target: T1, Protein cereblon/Cyclin-dependent kinase 12 (Homo sapiens); assay: PROTAC activity at CRBN/CDK12 in human MDA-MB-231 cells assessed as induction of CDK12 degradation at 2 uM incubated for 8 hrs by global proteomic analysis; format: cell-based
MDA-MB-231 [9] = assay: Induction of CCNK degradation in human MDA-MB-231 cells at 2 uM incubated for 8 hrs by global proteomic analysis; format: cell-based
MDA-MB-231 [10] = assay: Induction of CCNK degradation in human MDA-MB-231 cells incubated for 15 hrs by immunoblotting analysis; format: cell-based; conditions: dose 0.01-3 µM
MDA-MB-231 [11] = assay: Downregulation of ATR mRNA expression in human MDA-MB-231 cells incubated for 12 hrs by RT-qPCR analysis; format: functional, cell-based; conditions: dose 60-300 nM
MDA-MB-231 [12] = assay: Downregulation of BRCA1 mRNA expression in human MDA-MB-231 cells incubated for 12 hrs by RT-qPCR analysis; format: functional, cell-based; conditions: dose 60-300 nM
[13] = Antiproliferative activity against human MCF-10A cells assessed as inhibition of cell growth incubated for 5 days by CCK8 assay; format: toxicity, cell-based
MDA-MB-231 [14] = assay: Synergistic antiproliferative activity against human MDA-MB-231 cells assessed as inhibition of cell growth at 0.3 to 7.5 uM incubated for 5 days in presence of cisplatin by CCK8 assay; format: functional, cell-based; conditions: dose 0.3-7.5 µM, time 5.0 day
MDA-MB-231 [15] = assay: Synergistic antiproliferative activity against human MDA-MB-231 cells assessed as combination index at 1.5 uM incubated for 5 days in presence of cisplatin by CCK8 assay; format: functional; conditions: time 5 day
MDA-MB-231 [16] = assay: Synergistic antiproliferative activity against human MDA-MB-231 cells assessed as combination index at 7.5 uM incubated for 5 days in presence of cisplatin by CCK8 assay; format: functional; conditions: time 5 day

T1 sequence (Q96SW2 whole entry, looked up): as above
T1 sequence (Q9NYV4 whole entry, looked up): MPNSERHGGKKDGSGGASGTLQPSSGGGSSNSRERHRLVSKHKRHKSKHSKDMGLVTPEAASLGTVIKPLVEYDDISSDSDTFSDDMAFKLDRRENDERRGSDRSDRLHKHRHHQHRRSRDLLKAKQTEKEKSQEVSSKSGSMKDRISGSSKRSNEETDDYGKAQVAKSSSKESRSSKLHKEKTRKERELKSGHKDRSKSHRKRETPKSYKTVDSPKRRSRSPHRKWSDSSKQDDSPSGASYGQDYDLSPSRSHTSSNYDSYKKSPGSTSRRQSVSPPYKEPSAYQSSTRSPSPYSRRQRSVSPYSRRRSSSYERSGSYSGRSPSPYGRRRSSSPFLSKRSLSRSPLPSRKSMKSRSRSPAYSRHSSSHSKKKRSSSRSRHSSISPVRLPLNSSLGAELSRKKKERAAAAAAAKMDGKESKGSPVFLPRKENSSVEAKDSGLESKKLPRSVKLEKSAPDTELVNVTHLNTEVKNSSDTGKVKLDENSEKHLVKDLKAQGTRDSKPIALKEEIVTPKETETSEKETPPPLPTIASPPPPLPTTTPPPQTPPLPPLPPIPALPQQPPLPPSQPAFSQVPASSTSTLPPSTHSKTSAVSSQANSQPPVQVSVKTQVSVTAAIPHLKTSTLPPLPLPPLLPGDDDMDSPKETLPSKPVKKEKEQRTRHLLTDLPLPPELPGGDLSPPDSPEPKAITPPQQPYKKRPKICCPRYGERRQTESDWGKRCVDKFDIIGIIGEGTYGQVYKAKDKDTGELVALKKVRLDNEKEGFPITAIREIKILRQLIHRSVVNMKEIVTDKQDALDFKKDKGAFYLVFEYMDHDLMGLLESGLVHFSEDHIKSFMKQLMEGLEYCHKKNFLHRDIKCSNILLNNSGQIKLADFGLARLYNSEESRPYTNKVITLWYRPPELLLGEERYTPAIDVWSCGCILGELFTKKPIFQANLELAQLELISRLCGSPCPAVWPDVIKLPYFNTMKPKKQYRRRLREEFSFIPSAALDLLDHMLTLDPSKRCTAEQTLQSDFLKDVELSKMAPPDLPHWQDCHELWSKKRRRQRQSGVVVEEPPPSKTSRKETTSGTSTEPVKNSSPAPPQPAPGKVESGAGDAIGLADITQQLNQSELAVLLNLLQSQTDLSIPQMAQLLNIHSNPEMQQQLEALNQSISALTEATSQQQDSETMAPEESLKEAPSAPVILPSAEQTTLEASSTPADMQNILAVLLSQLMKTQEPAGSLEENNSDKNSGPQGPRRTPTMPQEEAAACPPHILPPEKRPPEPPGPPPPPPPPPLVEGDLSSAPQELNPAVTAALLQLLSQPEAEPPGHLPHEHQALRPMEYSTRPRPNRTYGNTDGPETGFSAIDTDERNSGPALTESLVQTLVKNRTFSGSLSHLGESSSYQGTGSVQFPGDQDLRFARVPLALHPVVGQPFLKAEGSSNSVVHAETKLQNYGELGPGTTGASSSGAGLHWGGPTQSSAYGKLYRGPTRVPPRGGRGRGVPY

Activity [1]: Dose-Dependent Effect | Activity [2]: Tde | Activity [3]: Dose-Dependent Effect | Activity [4]: inactive | Activity [5]: inactive | Activity [6]: Active | Activity [7]: inactive | Activity [8]: Active
SMILES: N#Cc1ccc(N[C@H]2CC[C@H](N(C(=O)NCc3ccccc3)c3ccc(N4CCN(C5CCN(c6cc7c(cc6F)C(=O)N(C6CCC(=O)NC6=O)C7=O)CC5)CC4)cc3)CC2)nc1 (stereo partly specified)
Activity (MDA-MB-231 [9]): Active | Activity (MDA-MB-231 [10]): Dose-Dependent Effect | Activity (MDA-MB-231 [11]): Dose-Dependent Effect | Activity (MDA-MB-231 [12]): Dose-Dependent Effect | IC50 at 5 days [13]: > 10 µM | Activity (MDA-MB-231 [14]): Active | CI (MDA-MB-231 [15]): 0.17 | CI (MDA-MB-231 [16]): 0.07

Source: ChEMBL document CHEMBL6071181, “Discovery of ZLC491 as a Potent, Selective, and Orally Bioavailable CDK12/13 PROTAC Degrader” (J Med Chem, 2024)
